Laboratory results as given in ChEMBL document CHEMBL5126512, “Current status of carbazole hybrids as anticancer agents” (Eur J Med Chem, 2022).

How the values were obtained:
[1] = Potency index, ratio of cisplatin IC50 to compound IC50 for anticancer activity against cisplatin/camptothecin resistant human CLS-354 cells by MTT assay; assay type: functional
[2] = Anticancer activity against cisplatin/camptothecin resistant human CLS-354 cells assessed as cell growth inhibition measured after 24 hrs by MTT assay; assay type: functional, cell-based; settings: CLS-354, 24 h
[3] = Anticancer activity against human CLS-354 cells assessed as cell growth inhibition measured after 24 hrs by MTT assay; assay type: functional, cell-based; settings: CLS-354, 24 h
MCF7 [4] = assay: Antiproliferative activity against human MCF7 cells assessed as cell growth inhibition measured after 48 hrs by MTT assay; assay type: functional, cell-based; settings: MCF7, 48 h
A549 [5] = assay: Antiproliferative activity against human A549 cells assessed as cell growth inhibition measured after 48 hrs by MTT assay; assay type: functional, cell-based; settings: A549, 48 h
HCT-116 = assay: Antitumor activity against human HCT-116 cells xenografted in BALB/c nu/nu mouse assessed as reduction in tumor volume at 100 mg/kg/day, ip administered for 20 days measured by caliper relative to control; assay type: functional; design: scale not given: the % may be the effect or the level left; settings: time 20 day
HeLa [6] = assay: Cytotoxicity against human HeLa cells assessed as cell growth inhibition by MTT assay; assay type: functional, cell-based
NCI-H1299 = assay: Cytotoxicity against human NCI-H1299 cells assessed as cell growth inhibition by Trypan blue staining based analysis; assay type: functional; settings: pooled result: one value given for 6 cell lines, strains, targets or settings
A549 [7] = assay: Antitumour activity against human A549 cells xenografted in mouse assessed as reduction in tumor volume at 3 mg/kg relative to control; assay type: functional; design: scale not given: the % may be the effect or the level left
MCF7 [8] = assay: Cytotoxicity against human MCF7 cells assessed as cell growth inhibition measured after 48 hrs by MTT assay; assay type: functional, cell-based; settings: MCF7, 48 h
MCF7 [9] = assay: Potency index, ratio of Doxorubicin IC50 to compound IC50 for cytotoxicity against human MCF7 cells by MTT assay; assay type: functional
SGC-7901 = assay: Antiproliferative activity against human SGC-7901 cells assessed as cell growth inhibition measured after 72 hrs by MTT assay; assay type: functional, cell-based; settings: SGC-7901, 72 h
AGS = assay: Antiproliferative activity against human AGS cells assessed as cell growth inhibition measured after 72 hrs by MTT assay; assay type: functional, cell-based
[10] = Cytotoxicity against human HUVEC cells assessed as cell growth inhibition measured after 48 hrs by MTT assay; assay type: toxicity, cell-based
MDA-MB-231 = assay: Cytotoxicity against human MDA-MB-231 cells assessed as cell growth inhibition measured after 48 hrs by MTT assay; assay type: functional, cell-based; settings: MDA-MB-231, 48 h
HeLa [11] = assay: Cytotoxicity against human HeLa cells assessed as cell growth inhibition measured after 48 hrs by MTT assay; assay type: functional, cell-based

For CC(C)=CCC[C@@]1(C)C=Cc2c(ccc3c2[nH]c2cc(O)c(C)cc23)O1, the “Ratio IC50” value [1] was 2.1, the IC50 [2] was 16 µM and the IC50 [3] was 14.4 µM.

Cn1c2ccccc2c2cc(C3NCCc4c3[nH]c3ccccc43)ccc21 (configuration not stated) gave an IC50 (MCF7 [4]) of 5.48 µM and an IC50 (A549 [5]) of 5.04 µM.

CCn1c2ccccc2c2cc(/C=N/NC(=O)c3ccccc3Cl)ccc21 showed an Activity (HCT-116) of 35% and an IC50 (HeLa [6]) of 3.12 µM.

With CCn1c2ccccc2c2cc(NC(=O)NCCN3CCN(C(=O)c4ccco4)CC3)ccc21 the IC50 (NCI-H1299) was 1.78 µM and the Activity (A549 [7]) was 65%.

For N#CC1=C(N)Oc2ccc3c([nH]c4ccccc43)c2C12C(=O)N(Cc1cn(Cc3ccc([N+](=O)[O-])cc3)nn1)c1ccccc12 (configuration not stated), the IC50 (MCF7 [8]) was 2.13 µM and the “Ratio IC50” value (MCF7 [9]) was 2.1.

Compound N=C(N)N/N=C/c1ccc2c(c1)c1ccccc1n2Cc1ccccc1F has an IC50 (SGC-7901) of 1.5 µM and an IC50 (AGS) of 0.4 µM.

With CCCCCn1cc(CN2C(=O)C3(C(C#N)=C(N)Oc4ccc5c([nH]c6ccccc65)c43)c3ccccc32)nn1 (configuration not stated) the IC50 at 48 h [10] was 4.8 µM, the IC50 (MDA-MB-231) was 4.8 µM and the IC50 (MCF7 [8]) was 4.8 µM. It also gave an IC50 (HeLa [11]) of 4.8 µM.
